Reference: US20060069132A1, “Azolecarboxamide herbicides” (priority 2004, published 2006)
Where two headings read alike, the source gives them in different places.

What was measured:
giant foxtail = assay: Test A pre-/postemergence herbicide test; assay type: in vivo, Setaria faberi
Summary of the method: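 Seeds sown in sandy loam received a preemergence directed soil spray of compound in non-phytotoxic solvent with surfactant; postemergence plants (2–10 cm, one- to two-leaf stage) were sprayed to runoff at the same time. After ~10 days in greenhouse, injury was rated visually versus untreated controls (0 = no effect, 100 = complete control).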

barnyardgrass [1] = assay: Test B flooded paddy test; assay type: in vivo, Echinochloa crus-galli; settings: 1000 g ai/ha, scale 0 to 100 (0 no effect, 100 complete control); for pest or weed control at 1000 g/ha: Echinochloa crus-galli, 336 h, read-out: Barnyardgrass plant response rating
Summary of the method: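 Scale 0–100: zero equals no visible effect, 100 complete control, judged by eye relative to controls. Timing: 13 to 15 days in greenhouse post-treatment. Growth stage at spraying: two leaves (paddy) or one to four leaves, 2–18 cm (postemergence).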

wheat = assay: Test B postemergence herbicide test; assay type: in vivo, Triticum aestivum; design: key to Wheat plant response rating: 0 = no effect, 100 = complete control; settings: for Plant response rating, Wheat: visual rating after 13 to 15 days; for plant injury at 125 g/ha / plant injury at 500 g/ha: Triticum aestivum, post-emergence, 336 h, read-out: Wheat plant response rating
Summary of the method: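 Read-out: visual comparison with controls, scored 0 to 100, where 100 means complete control and 0 no effect. Formulated chemicals were applied postemergence to plants 2–18 cm tall (1- to 4-leaf), or to flooded-paddy plants at the 2-leaf stage, then held 13 to 15 days under glass.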

rice = assay: Test C flooded paddy test; assay type: in vivo, Oryza sativa; settings: for Plant response rating, Rice: visual rating after 12 to 14 days
Summary of the method: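 Injury scored visually against controls on a 0 (no effect) to 100 (complete control) scale, 12 to 14 days after treatment in greenhouse. Flooded paddy plants treated at 2-leaf stage; postemergence plants at 1- to 4-leaf stage, 2 to 18 cm tall.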

barnyardgrass [2] = assay: Test C flooded paddy test; assay type: in vivo, Echinochloa crus-galli; settings: for Plant response rating, Barnyardgrass: visual rating after 12 to 14 days
Summary of the method: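 Postemergence sprays were applied to plants 2 to 18 cm tall (1- to 4-leaf stage); in the flooded paddy test, barnyardgrass was grown to the 2-leaf stage. After 12 to 14 days in a greenhouse, injury was visually rated against untreated controls on a 0–100 scale (100 = complete control).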

[3] = Postemergence, 500 g ai/ha, 0 to 100 scale, 0 no effect, 100 complete control
[4] = Postemergence, 2000 g ai/ha, 0 to 100 scale, 0 no effect, 100 complete control
[5] = Preemergence, 500 g ai/ha, visual rating, 0 to 100 scale (0 no effect, 100 complete control)
[6] = Postemergence, 500 g ai/ha, scale 0 (no effect) to 100 (complete control)
[7] = 62 g ai/ha, scale 0 to 100 (0 no effect, 100 complete control)
[8] = 125 g ai/ha, scale of 0 to 100, 0 is no effect, 100 is complete control
[9] = 250 g ai/ha, scale 0 to 100 (0 no effect, 100 complete control)
[10] = 500 g ai/ha, scale 0 to 100 (0 no effect, 100 complete control)
[11] = postemergence, 125 g ai/ha, visual rating, scale 0 (no effect) to 100 (complete control)
[12] = 250 g ai/ha, scale of 0 to 100, 0 is no effect, 100 is complete control
[13] = Preemergence, 2000 g ai/ha, visual rating, 0 to 100 scale (0 no effect, 100 complete control)
[14] = postemergence, 500 g ai/ha, visual rating, scale 0 (no effect) to 100 (complete control)
[15] = 125 g ai/ha, scale 0 to 100 (0 no effect, 100 complete control)
[16] = preemergence, 500 g ai/ha, visual injury, 0 to 100 scale (0 no effect, 100 complete control)
[17] = postemergence, 500 g ai/ha, scale 0 to 100, 0 is no effect, 100 is complete control

| Structure (SMILES) | Plant response rating, Foxtail, Giant (giant foxtail; [4]) | Foxtail, Giant plant response rating (giant foxtail; [5]) | Barnyardgrass plant response rating (barnyardgrass [1]; visual rating, 13 to 15 days) | Rice plant response rating (rice; [7]) | Plant response rating, Rice (rice; [10]) | Barnyardgrass plant response rating (barnyardgrass [2]; [7]) | Barnyardgrass plant response rating (barnyardgrass [2]; [8]) | Plant response rating, Barnyardgrass (barnyardgrass [2]; [10]) | Wheat plant response rating (wheat; [11]) | Rice plant response rating (rice; [12]) | Barnyardgrass plant response rating (barnyardgrass [2]; [12]) | Foxtail, Giant plant response rating (giant foxtail; [3]) | Foxtail, Giant plant response rating (giant foxtail; [13]) | Wheat plant response rating (wheat; [14]) | Rice plant response rating (rice; [15]) | Barnyardgrass plant response rating (barnyardgrass [2]; [15]) | further results |
| --- | --- | --- | --- | --- | --- | --- | --- | --- | --- | --- | --- | --- | --- | --- | --- | --- | --- |
| CCn1nc(C(C)(C)C)cc1C(=O)Nc1cccc(C(=O)NCCF)c1 [Compound 45] | 95 | 75 | 80 | 30 | 65 | 25 | 30 | 80 | – | – | – | – | – | – | – | – | Plant response rating, Foxtail, Giant (giant foxtail; [3]): 90; Foxtail, Giant plant response rating (giant foxtail; Preemergence, 2000 g ai/ha, 0 to 100 scale, 0 no effect, 100 complete control): 100; Plant response rating, Wheat (wheat; [6]): 30; Rice plant response rating (rice; [8]): 30; Plant response rating, Rice (rice; [9]): 35; Plant response rating, Barnyardgrass (barnyardgrass [2]; [9]): 60 |
| CCn1nc(C(C)(C)C)cc1C(=O)Nc1cccc(C(=O)NC(C)C)c1 [Compound 51] | – | 100 | 90 | 0 | 50 | 0 | 0 | 75 | 20 | 15 | 20 | – | – | – | – | – | Foxtail, Giant plant response rating (giant foxtail; Postemergence, 125 g ai/ha, 0 to 100 scale, 0 no effect, 100 complete control): 20; Plant response rating, Foxtail, Giant (giant foxtail; [3]): 40; Foxtail, Giant plant response rating (giant foxtail; preemergence, 125 g ai/ha, visual injury, 0 to 100 scale (0 no effect, 100 complete control)): 70; Plant response rating, Wheat (wheat; [6]): 20; Rice plant response rating (rice; [8]): 0 |
| CCn1nc(C(C)(C)C)cc1C(=O)Nc1cccc(C(C)=O)c1 [Compound 122] | 80 | 65 | 60 | 0 | 50 | 20 | 50 | 80 | 0 | 10 | 60 | 80 | 85 | 10 | – | – | Rice plant response rating (rice; [8]): 10 |
| CCOc1cccc(NC(=O)c2cc(C(C)(C)C)nn2CC)c1 [Compound 136] | 50 | 60 | 60 | 30 | 70 | 20 | 25 | 80 | 20 | 50 | 40 | 25 | 70 | 40 | 35 | – | – |
| CCn1nc(C(C)(C)C)cc1C(=O)Nc1cccc(OCCCF)c1 [Compound 138] | 35 | 30 | 10 | 5 | 40 | 0 | 0 | 30 | 20 | 5 | 15 | 20 | 90 | 30 | 5 | – | – |
| CCn1nc(C(C)(C)C)cc1C(=O)Nc1cc(C(=O)NCC2CC2)ccn1 [Compound 155] | – | – | 70 | 0 | 35 | 0 | 25 | 65 | – | 0 | 50 | – | – | 20 | 0 | – | – |
| CCc1nc(C(C)(C)C)sc1C(=O)Nc1cccc(C(=O)NCCF)c1 [Compound 209] | 25 | – | 60 | 0 | 65 | 0 | – | 80 | 10 | 45 | 70 | 15 | 90 | 20 | 45 | 55 | Foxtail, Giant plant response rating (giant foxtail; [16]): 50 |
| CCc1nc(C(C)(C)C)sc1C(=O)Nc1cccc(C(=O)NC(C)(C)C)n1 [Compound 216] | 20 | – | 20 | 0 | 30 | 0 | – | 30 | 0 | 0 | 0 | 20 | 70 | 10 | 0 | 0 | Foxtail, Giant plant response rating (giant foxtail; [16]): 25 |
| CCN(CC)C(=O)c1cncc(NC(=O)c2cc(C(C)(C)C)nn2CC)c1 [Compound 261, 5-[[[3-(1,1-dimethylethyl)-1-ethyl-1H-pyrazol-5-yl]carbonyl]amino]-N,N-diethyl-3-pyridinecarboxamide] | – | – | – | – | – | – | – | – | – | – | – | – | – | – | – | – | pest or weed control at 1000 g/ha (barnyardgrass [1]): 0%; plant injury at 125 g/ha (wheat; [11]): 0%; plant injury at 500 g/ha (wheat; [17]): 20% |
| CCNC(=O)c1ccc(F)c(NC(=O)c2cc(C(C)(C)C)nn2CC)n1 [Compound 278] | 15 | – | – | – | 30 | 0 | – | 25 | 30 | 15 | 0 | 5 | 85 | – | 0 | 0 | Foxtail, Giant plant response rating (giant foxtail; [16]): 60; Barnyardgrass plant response rating (barnyardgrass [1]): 60; Wheat plant response rating (wheat; [17]): 30; Rice plant response rating (rice; 62 g ai/ha, scale 0 to 100): 0 |
| CCOC(=O)c1cccc(NC(=O)c2nn(C(C)(C)C)nc2CC)c1 [Compound 360, ethyl 3-[[[2-(1,1-dimethylethyl)-5-ethyl-2H-1,2,3-triazol-4-yl]carbonyl]amino]benzoate] | – | – | – | – | – | – | – | – | – | – | – | – | – | – | – | – | pest or weed control at 1000 g/ha (barnyardgrass [1]): 40%; plant injury at 125 g/ha (wheat; 125 g ai/ha, visual rating, scale 0 (no effect) to 100 (complete control)): 30%; plant injury at 500 g/ha (wheat; [17]): 40% |
| CCn1nc(C(C)(C)C)cc1C(=O)Nc1cccc(OS(=O)(=O)CC)c1 [Compound 408] | – | – | – | – | 55 | 20 | – | 70 | – | 45 | 60 | – | – | – | 35 | 45 | Barnyardgrass plant response rating (barnyardgrass [1]): 70; Wheat plant response rating (wheat; 500 g ai/ha, scale 0 to 100, 0 no effect, 100 complete control, preemergence): 80; Wheat plant response rating (wheat; [6]): 30; Wheat plant response rating (wheat; postemergence, 125 g ai/ha, scale 0 to 100): 20; Rice plant response rating (rice; 62 g ai/ha, scale 0 to 100): 25 |
